Measured values taken from patent publication US8962853B2, “Chemical probe compounds that become fluorescent upon reduction, and methods for their use” (Life Technologies Corporation, priority 2005, dated 2015).

How the values were obtained:
E. coli [1] = assay: Electron transport system (ETS) inhibition assay; assay type: cell-based, Escherichia coli; conditions: for fluorescence signal of stain, E. coli: no ETS inhibitor (Untreated)
Procedure: (§1) S. aureus and E. coli were treated with known inhibitors of the electron transport system (ETS) to determine if reductase moieties in the ETS would reduce exemplary stain compounds. […] The bacteria were diluted in PBS buffer and treated with the various ETS inhibitors, stained with 500 nM stain compound (18) for 10 minutes, and then analyzed by flow cytometry using a Becton Dickinson FACSCalibur™ instrument (Becton, Dickinson and Company; Franklin Lakes, N.J.) containing a 488 nm argon ion laser.
(§2) Stain compound (19) was assayed according to the procedure outlined in Example 23.
(§3) Stain compound (22) was assayed according to the procedure outlined in Example 23.
(§4) Stain compound (24) was assayed according to the procedure outlined in Example 23.

S. aureus [2] = assay: Electron transport system (ETS) inhibition assay; assay type: cell-based, Staphylococcus aureus; conditions: for fluorescence signal of stain, S. aureus: no ETS inhibitor (Untreated)
Procedure: as §1, §2, §3, §4

S. aureus [3] = assay: Staining of bacteria, flow cytometry; assay type: cell-based, Staphylococcus aureus; conditions: 500 nM, 10 minutes
Procedure: (§5) Gram-positive and Gram-negative bacteria were labeled using compound (18). S. aureus and B. subtilis were used as examples of Gram-positive bacteria, and E. coli and K. pneumoniae were used as examples of Gram-negative bacteria. Cells were diluted in buffer to about 10^6 cells/mL. The bacteria were contacted with compound 18 (500 nM) for 10 minutes in Hank's Balanced Salt Solution (HBSS) or various other buffers such as PBS. The samples were analyzed by flow cytometry using a Becton Dickinson FACScan™ instrument (Becton, Dickinson and Company; Franklin Lakes, N.J.) containing a 488 nm argon ion laser. Cells were analyzed directly without washing, or optionally, were fixed with 1-4% formaldehyde prior to flow cytometric analysis.

K. pneumoniae [4] = assay: Titration series on cultured bacteria; assay type: cell-based, Klebsiella pneumoniae; conditions: titration 500 nM to 4 uM; Gram-negative organisms tested
Procedure: (§6) The x-axis represents the concentration of compound (18) in nM, while the y-axis represents FL1 GeoMean fluorescence.
(§7) A titration series was performed on cultured bacteria. Chemical compound (18) was used at concentrations ranging from 10 nM to 1 uM for S. aureus and B. subtilis (FIG. 2), and 500 nM to 4 uM for E. coli and K. pneumoniae (FIG. 3).

E. coli [5] = assay: Titration series on cultured bacteria; assay type: cell-based, Escherichia coli; conditions: titration 500 nM to 4 uM; Gram-negative organisms tested
Procedure: as §6, §7

S. aureus [6] = assay: Time course treatments (growth and stain fluorescence); assay type: cell-based, Staphylococcus aureus; conditions: compound present in broth culture medium
Procedure: Control samples that were untreated were also prepared.
Samples were taken once every hour for six hours and stained with 500 nM compound (18) for 10 minutes, then analyzed by flow cytometry using a Becton Dickinson FACSCalibur™ instrument (Becton, Dickinson and Company; Franklin Lakes, N.J.) containing a 488 nm argon ion laser. Not only did the treated cells not proliferate, but the signal from the stain in treated samples decreased once the cells entered ‘log-growth’ phase as compared to the untreated control.

B. subtilis [7] = assay: Stability of fluorescence; assay type: cell-based, Bacillus subtilis; conditions: monitored for one hour
Procedure: (§8) Compound (18) was contacted with cultures of S. aureus, B. subtilis, E. coli, and K. pneumoniae. The fluorescence of the samples were monitored for one hour. The signal developed very quickly for S. aureus and B. subtilis, and stabilized within 10 minutes. The signal was stable for at least one hour (FIG. 6).

K. pneumoniae [8] = assay: Staining of bacteria, flow cytometry; assay type: cell-based, Klebsiella pneumoniae; conditions: 500 nM, 10 minutes
Procedure: as §5

E. coli [9] = assay: Staining of bacteria, flow cytometry; assay type: cell-based, Escherichia coli; conditions: 500 nM, 10 minutes
Procedure: as §5

S. aureus [10] = assay: Fixation assays (compatibility with fixed samples); assay type: cell-based, Staphylococcus aureus; conditions: 100 nM, 10 minutes, HBSS
Procedure: A culture of S. aureus was grown to log-phase, and washed and diluted in HBSS to 10^6 cells per mL. Samples of 1 mL each were aliquotted to six flow cytometry tubes. CCCP was added to three of the samples at a final concentration of 10 μM. The samples were incubated for 1-5 minutes. Compound (18) was added at a final concentration of 100 nM, and the samples were allowed to sit for 10 minutes. The +/− CCCP tubes were divided into two sets: one set received 1 mL of 100% ethanol, and the other set received 100 µL of 10% formaldehyde (methanol-free). The samples were analyzed using a Becton Dickinson FACSCalibur as described in Example 23.

S. aureus [11] = assay: Stability of fluorescence; assay type: cell-based, Staphylococcus aureus; conditions: monitored for one hour
Procedure: as §8

B. subtilis [12] = assay: Staining of bacteria, flow cytometry; assay type: cell-based, Bacillus subtilis; conditions: 500 nM, 10 minutes
Procedure: as §5

S. aureus [13] = assay: Titration series on cultured bacteria; assay type: cell-based, Staphylococcus aureus; conditions: titration 10 nM to 1 uM
Procedure: as §6, §7

B. subtilis [14] = assay: Titration series on cultured bacteria; assay type: cell-based, Bacillus subtilis; conditions: titration 10 nM to 1 uM
Procedure: as §6, §7

[15] = stained with compound (18) 500 nM, rotenone 1 mM, antimycin A 20 uM, azide 10 mM, CCCP 10 uM
[16] = buffer Sodium chloride + 10 mM glucose
[17] = stain compound (18) 500 nM, 10 minutes, PBS

## N#CC(C#N)=NNc1cccc(Cl)c1 [CCCP, carbonyl cyanide m-chlorophenylhydrazone]
E. coli [1]; [15]
  fluorescence signal after inhibitor treatment, E. coli: 150.7
E. coli [1]; stained with compound (19)
  fluorescence signal after inhibitor treatment, E. coli: 12.59
E. coli [1]; stained with compound (22)
  fluorescence signal after inhibitor treatment, E. coli: 63.26
E. coli [1]; stained with compound (24)
  fluorescence signal after inhibitor treatment, E. coli: 152.7
S. aureus [2]; [15]
  fluorescence signal after inhibitor treatment, S. aureus: 4.19
S. aureus [2]; stained with compound (19)
  fluorescence signal after inhibitor treatment, S. aureus: 46.73
S. aureus [2]; stained with compound (22)
  fluorescence signal after inhibitor treatment, S. aureus: 240.61
S. aureus [2]; stained with compound (24)
  fluorescence signal after inhibitor treatment, S. aureus: 402.19

## CC1=C(C)C(=O)C(N2CCC(NC(=O)CCCN(C)C3=C/C(=C\c4sc5ccccc5[n+]4C)c4ccccc4N3c3ccccc3)CC2)=C(C)C1=O [Compound 18]
S. aureus [3]; buffer HBSS
  FL1 GeoMean fluorescence: 2168.52
S. aureus [3]; buffer PBS + 1 mM EDTA
  FL1 GeoMean fluorescence: 1583.19
S. aureus [3]; buffer PBS + 0.01% Tween-20
  FL1 GeoMean fluorescence: 2909.97
S. aureus [3]; buffer PBS + 0.1% Pluronic
  FL1 GeoMean fluorescence: 1685.21
S. aureus [3]; buffer PBS
  FL1 GeoMean fluorescence: 1976.41
S. aureus [3]; [16]
  FL1 GeoMean fluorescence: 2183.44
S. aureus [3]; buffer Sodium chloride
  FL1 GeoMean fluorescence: 2171.61
K. pneumoniae [4]
  preferred concentration for staining: about 1 uM
E. coli [1]; [17]
  fluorescence signal of stain, E. coli: 85.33
E. coli [5]
  preferred concentration for staining: about 1 uM
S. aureus [6]
  proliferation of S. aureus: prevented proliferation
B. subtilis [7]
  time for fluorescence signal to stabilize: ≤ 10 min
  time the fluorescence signal was stable: at least one
K. pneumoniae [8]; buffer HBSS
  FL1 GeoMean fluorescence: 19.9
K. pneumoniae [8]; buffer PBS + 1 mM EDTA
  FL1 GeoMean fluorescence: 48.67
K. pneumoniae [8]; buffer PBS + 0.01% Tween-20
  FL1 GeoMean fluorescence: 29
K. pneumoniae [8]; buffer PBS + 0.1% Pluronic
  FL1 GeoMean fluorescence: 78.1
K. pneumoniae [8]; buffer PBS
  FL1 GeoMean fluorescence: 17.91
K. pneumoniae [8]; [16]
  FL1 GeoMean fluorescence: 9.7
K. pneumoniae [8]; buffer Sodium chloride
  FL1 GeoMean fluorescence: 9.16
S. aureus [2]; [17]
  fluorescence signal of stain, S. aureus: 351.91
E. coli [9]; buffer HBSS
  FL1 GeoMean fluorescence: 42.1
E. coli [9]; buffer PBS + 1 mM EDTA
  FL1 GeoMean fluorescence: 70.92
E. coli [9]; buffer PBS + 0.01% Tween-20
  FL1 GeoMean fluorescence: 44.48
E. coli [9]; buffer PBS + 0.1% Pluronic
  FL1 GeoMean fluorescence: 136.43
E. coli [9]; buffer PBS
  FL1 GeoMean fluorescence: 30.25
E. coli [9]; [16]
  FL1 GeoMean fluorescence: 11.52
E. coli [9]; buffer Sodium chloride
  FL1 GeoMean fluorescence: 12.43
S. aureus [10]; CCCP No, Fixation agent Ethanol
  Fluorescence: 135
S. aureus [10]; CCCP No, Fixation agent Formaldehyde
  Fluorescence: 936
S. aureus [10]; CCCP No, Fixation agent None
  Fluorescence: 1720
S. aureus [10]; CCCP Yes (10 μM), Fixation agent Ethanol
  Fluorescence: 53
S. aureus [10]; CCCP Yes (10 μM), Fixation agent Formaldehyde
  Fluorescence: 274
S. aureus [10]; CCCP Yes (10 μM), Fixation agent None
  Fluorescence: 110
S. aureus [11]
  time for fluorescence signal to stabilize: ≤ 10 min
  time the fluorescence signal was stable: at least one
B. subtilis [12]; buffer HBSS
  FL1 GeoMean fluorescence: 902.22
B. subtilis [12]; buffer PBS + 1 mM EDTA
  FL1 GeoMean fluorescence: 57.75
B. subtilis [12]; buffer PBS + 0.01% Tween-20
  FL1 GeoMean fluorescence: 844.66
B. subtilis [12]; buffer PBS + 0.1% Pluronic
  FL1 GeoMean fluorescence: 470.35
B. subtilis [12]; buffer PBS
  FL1 GeoMean fluorescence: 902.15
B. subtilis [12]; [16]
  FL1 GeoMean fluorescence: 943.79
B. subtilis [12]; buffer Sodium chloride
  FL1 GeoMean fluorescence: 951.93
S. aureus [13]
  concentration found to work well for staining: 50 to 100 nM
B. subtilis [14]
  optimal concentration for staining: about 500 nM

## CC1=C(C)C(=O)C(N2CCN(C(=O)CCCN(C)C3=C/C(=C\c4sc5ccccc5[n+]4C)C=CN3c3ccccc3)CC2)=C(C)C1=O [Compound 19]
E. coli [1]; stain compound (19)
  fluorescence signal of stain, E. coli: 59.78
S. aureus [2]; stain compound (19)
  fluorescence signal of stain, S. aureus: 248.1

## CC1=C(NCCCN(C)C2=C/C(=C\c3sc4ccccc4[n+]3C)c3ccccc3N2c2ccccc2)C(=O)c2ccccc2C1=O [Compound 22]
E. coli [1]; stain compound (22)
  fluorescence signal of stain, E. coli: 90.91
S. aureus [2]; stain compound (22)
  fluorescence signal of stain, S. aureus: 594.12

## CC1=C(C)C(=O)C(N(C)CCCN(C)C2=C/C(=C\c3sc4ccccc4[n+]3C)c3ccccc3N2c2ccccc2)=C(C)C1=O [Compound 24]
E. coli [1]; stain compound (24)
  fluorescence signal of stain, E. coli: 114.71
S. aureus [2]; stain compound (24)
  fluorescence signal of stain, S. aureus: 853.47

## C=C(C)[C@H]1Cc2c(ccc3c2O[C@@H]2COc4cc(OC)c(OC)cc4[C@@H]2C3=O)O1 [Rotenone, rotenone]
E. coli [1]; [15]
  fluorescence signal after inhibitor treatment, E. coli: 24.05
E. coli [1]; stained with compound (19)
  fluorescence signal after inhibitor treatment, E. coli: 20.56
E. coli [1]; stained with compound (22)
  fluorescence signal after inhibitor treatment, E. coli: 38.81
E. coli [1]; stained with compound (24)
  fluorescence signal after inhibitor treatment, E. coli: 44.66
S. aureus [2]; [15]
  fluorescence signal after inhibitor treatment, S. aureus: 32.75
S. aureus [2]; stained with compound (19)
  fluorescence signal after inhibitor treatment, S. aureus: 8.19
S. aureus [2]; stained with compound (22)
  fluorescence signal after inhibitor treatment, S. aureus: 11.74
S. aureus [2]; stained with compound (24)
  fluorescence signal after inhibitor treatment, S. aureus: 17.17

## antimycin A
E. coli [1]; [15]
  fluorescence signal after inhibitor treatment, E. coli: 34.65
E. coli [1]; stained with compound (19)
  fluorescence signal after inhibitor treatment, E. coli: 12.4
E. coli [1]; stained with compound (22)
  fluorescence signal after inhibitor treatment, E. coli: 20.17
E. coli [1]; stained with compound (24)
  fluorescence signal after inhibitor treatment, E. coli: 26.28
S. aureus [2]; [15]
  fluorescence signal after inhibitor treatment, S. aureus: 59.41
S. aureus [2]; stained with compound (19)
  fluorescence signal after inhibitor treatment, S. aureus: 4.1
S. aureus [2]; stained with compound (22)
  fluorescence signal after inhibitor treatment, S. aureus: 6.16
S. aureus [2]; stained with compound (24)
  fluorescence signal after inhibitor treatment, S. aureus: 6.56
